13 compounds from PubChem BioAssay (NCI) can be followed below.

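Tested at 5 concentrations; 48 h exposure; 96-well plates; endpoints linearly interpolated, else capped at highest concentration. GI50 is the concentration that inhibits growth by half. The concentration for full growth arrest is given as TGI.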

Test systems include SK-MEL-5 melanoma; OVCAR-8 ovarian; SF-539 CNS; K-562 leukemia; NCI-H23 lung; SF-295 CNS; BT-549 breast; PC-3 prostate; SK-MEL-28 melanoma; EKVX NSCLC.
Holding throughout (assay): growth of human tumour cells (NCI), 48 h

As to `O=C/C=C/c1ccco1`, the TGI with SK-MEL-5 melanoma, in the test on OVCAR-8 ovarian, with SF-539 CNS, in the test with K-562 leukemia, with NCI-H23 lung and in the test on SF-295 CNS was over 100 µM in each case. The TGI in the test on BT-549 breast, in the test with PC-3 prostate, with SK-MEL-28 melanoma and with EKVX NSCLC was over 100 µM in each case.

`COc1cc(C2C(C(=O)O)=C(COC(C)=O)Oc3cc4c(cc32)OCO4)cc(OC)c1OC` (configuration not stated): the TGI with SK-MEL-5 melanoma, in the test on OVCAR-8 ovarian, with K-562 leukemia, in the test with NCI-H23 lung, in the test with SF-295 CNS and with SK-MEL-28 melanoma was over 100 µM each time. For the same compound, the TGI with EKVX NSCLC was over 100 µM.

Turning to `O=C1/C(=C/c2ccc(Cl)cc2)N=C(c2ccccc2)N1CCc1cccs1`, the GI50 with SK-MEL-5 melanoma is 15.6 µM; in the test with OVCAR-8 ovarian it was 43.8 µM; in the test on SF-539 CNS it was 48.2 µM; with K-562 leukemia, 22.9 µM; in the test on NCI-H23 lung, 20 µM; in the test with SF-295 CNS, 17.7 µM. Also, the GI50 in the test on BT-549 breast is 22.1 µM; in the test with PC-3 prostate, 13 µM; in the test on SK-MEL-28 melanoma, 62.8 µM; in the test on EKVX NSCLC, 13.8 µM. The TGI with SK-MEL-5 melanoma is 33.2 µM; in the test with OVCAR-8 ovarian, over 100 µM; in the test with SF-539 CNS it was over 100 µM; in the test with K-562 leukemia, over 100 µM; in the test on NCI-H23 lung, over 100 µM; with SF-295 CNS it was over 100 µM. Besides, the TGI with BT-549 breast, in the test with PC-3 prostate, with SK-MEL-28 melanoma and in the test with EKVX NSCLC was over 100 µM in each case.

On to `N=C(N)SCc1ccc(Cl)cc1Cl` (tested in a mixture with another compound), for which the TGI is 29.2 µM with SK-MEL-5 melanoma; over 100 µM with OVCAR-8 ovarian; 31.9 µM with SF-539 CNS; 25.5 µM in the test on K-562 leukemia; 32.4 µM in the test with NCI-H23 lung; 31.3 µM in the test with SF-295 CNS. The TGI in the test with BT-549 breast came out at 36 µM; in the test with PC-3 prostate, 24.6 µM; with SK-MEL-28 melanoma, 45.3 µM; in the test with EKVX NSCLC, 37.2 µM.

For the compound `CNC(=O)N(C)COC`, the TGI in the test on OVCAR-8 ovarian, with SF-539 CNS, in the test on SF-295 CNS, in the test with SK-MEL-28 melanoma and with EKVX NSCLC was over 100 µM throughout.

For `O=C(O)c1cn2c3c(cc(N4CCN(CCO)CC4)cc3c1=O)SCC2`, the TGI in the test on SK-MEL-5 melanoma, with OVCAR-8 ovarian, with SF-539 CNS, in the test with K-562 leukemia, with NCI-H23 lung and in the test on SF-295 CNS was over 100 µM in each case. The TGI in the test with SK-MEL-28 melanoma and in the test on EKVX NSCLC was over 100 µM each time.

As to `COc1cc(/C=C/C(=O)c2c(C)nc3ccccc3c2C)ccc1OCCCOc1cc2c(cc1OC)C(=O)N1CCC[C@H]1C=N2`, the GI50 was 0.0329 µM in the test on OVCAR-8 ovarian; 0.0239 µM with SF-539 CNS; 0.011 µM in the test with K-562 leukemia; 0.0197 µM in the test with NCI-H23 lung; 0.0149 µM in the test on BT-549 breast; 0.0326 µM in the test with PC-3 prostate. Also, the results for the GI50 with SK-MEL-28 melanoma and with EKVX NSCLC were 0.0214 µM and 0.0555 µM, respectively. Also, the TGI in the test on OVCAR-8 ovarian was over 38.1 µM; in the test on SF-539 CNS it was 0.0563 µM; with K-562 leukemia, 0.0346 µM; in the test on NCI-H23 lung, 0.0459 µM; with BT-549 breast, 0.0428 µM; with PC-3 prostate, 1.15 µM. The TGI in the test on SK-MEL-28 melanoma was 0.044 µM; in the test with EKVX NSCLC it was 0.453 µM.

For the compound `CN(C)c1ccc(C(Cc2ccc3ccccc3n2)Cc2ccc3ccccc3n2)cc1`, the GI50 with SF-539 CNS is 4.74 µM; in the test on SF-295 CNS, 3.26 µM. Further, the TGI in the test on SF-539 CNS and with SF-295 CNS was over 100 µM in each case.

On to `CCCCCCCCCCCCCC[n+]1ccc2c(C)c3c(c(C)c2c1)c1cc(O)ccc1n3CC`, for which the GI50 with SK-MEL-5 melanoma is 0.258 µM; with SF-539 CNS, 0.419 µM; in the test with NCI-H23 lung it was 0.223 µM; in the test on SF-295 CNS it was 0.289 µM; in the test with BT-549 breast, 0.339 µM; with PC-3 prostate, 0.356 µM. The GI50 in the test on SK-MEL-28 melanoma was 0.496 µM; in the test with EKVX NSCLC, 0.554 µM. Further, the TGI in the test on SK-MEL-5 melanoma is 0.724 µM; in the test on SF-539 CNS, 1.52 µM; with NCI-H23 lung, 1.02 µM; with SF-295 CNS it was 1.08 µM; with BT-549 breast, 1.46 µM; in the test with PC-3 prostate, 1.33 µM. In addition, the TGI with SK-MEL-28 melanoma came out at 1.73 µM; in the test with EKVX NSCLC, 2.56 µM.

Regarding `CO/N=C(\C)COc1ccc2c(=O)c(-c3ccccc3)coc2c1`, the GI50 in the test with SK-MEL-5 melanoma was over 100 µM; in the test with OVCAR-8 ovarian, 21.4 µM; in the test with K-562 leukemia it was over 100 µM; with NCI-H23 lung it was 26.4 µM; in the test with SF-295 CNS, 31.9 µM; with BT-549 breast, 18 µM. For the same compound, the GI50 is 34.5 µM in the test on PC-3 prostate and over 100 µM in the test with SK-MEL-28 melanoma. Moreover, the TGI is over 100 µM in the test with SK-MEL-5 melanoma; 46.8 µM with OVCAR-8 ovarian; over 100 µM in the test on K-562 leukemia; 89 µM in the test with NCI-H23 lung; 65.2 µM in the test on SF-295 CNS; 38.8 µM with BT-549 breast. Moreover, the TGI in the test with PC-3 prostate and in the test with SK-MEL-28 melanoma was over 100 µM in each case.

Take `CC(C)C1=CCC2C(=C1)CCC1C(C)(C(=O)O)CCCC21C` (configuration not stated) (tested in a mixture with another compound): the TGI with SK-MEL-5 melanoma, in the test with OVCAR-8 ovarian, in the test with SF-539 CNS, with NCI-H23 lung, in the test on SF-295 CNS and in the test with BT-549 breast was over 100 µM in each case. Moreover, the TGI in the test with PC-3 prostate, in the test on SK-MEL-28 melanoma and in the test on EKVX NSCLC was over 100 µM each time.

In the case of `CCc1ccc2nc(-c3ccc(O)cc3)sc2c1`, the TGI in the test on SK-MEL-5 melanoma was found to be 34.6 µM; with OVCAR-8 ovarian, 38.9 µM; in the test on SF-539 CNS, 27.8 µM; in the test with K-562 leukemia, 54.5 µM; in the test with NCI-H23 lung, 34.1 µM; in the test on SF-295 CNS, 30.6 µM. For the same compound, the TGI in the test on BT-549 breast amounted to 31.1 µM; in the test with PC-3 prostate, 29 µM.

Turning to `N#Cc1c(N)sc2c1-c1ccccc1OC2`, the TGI in the test on SK-MEL-5 melanoma, with SF-539 CNS, in the test with K-562 leukemia, with NCI-H23 lung, in the test with BT-549 breast and with PC-3 prostate was over 100 µM in each case. Also, the TGI with SK-MEL-28 melanoma was over 100 µM; with EKVX NSCLC, 31 µM.
